{
  "source": "patent US10266565B2",
  "about": "“Peptide mimetic ligands of polo-like kinase 1 polo box domain and methods of use” (The United States of America, as represented by the …, priority 2011, dated 2019)",
  "key": {"Plk1 PBD": {"target": "Plk1 PBD (Homo sapiens, UniProt P53350)", "sequence (P53350 whole entry)": "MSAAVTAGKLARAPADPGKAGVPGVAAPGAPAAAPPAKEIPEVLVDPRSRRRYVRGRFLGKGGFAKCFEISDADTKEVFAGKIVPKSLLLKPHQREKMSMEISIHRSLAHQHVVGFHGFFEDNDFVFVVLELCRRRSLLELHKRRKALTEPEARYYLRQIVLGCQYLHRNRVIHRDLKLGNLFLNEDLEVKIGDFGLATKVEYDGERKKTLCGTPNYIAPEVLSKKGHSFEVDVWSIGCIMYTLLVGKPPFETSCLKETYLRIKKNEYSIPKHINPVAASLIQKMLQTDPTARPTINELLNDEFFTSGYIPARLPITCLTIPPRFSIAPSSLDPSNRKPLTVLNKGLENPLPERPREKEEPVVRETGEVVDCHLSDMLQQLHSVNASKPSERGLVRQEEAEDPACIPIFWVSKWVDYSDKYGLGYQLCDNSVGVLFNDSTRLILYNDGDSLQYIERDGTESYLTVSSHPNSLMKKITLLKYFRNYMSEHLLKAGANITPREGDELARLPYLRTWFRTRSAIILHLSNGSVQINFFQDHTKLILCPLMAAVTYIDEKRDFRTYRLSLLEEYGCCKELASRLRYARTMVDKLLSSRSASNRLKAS", "assay": "ELISA-based PBD-binding inhibition assay (immobilized biotinylated p-T78 peptide, HA-EGFP-Plk1 lysates)", "conditions": "relative to the comparator named in the sentence", "method": "The wells were washed once with PBS plus 0.05% Tween20 (PBST), and incubated with 200 μl of PBS plus 1% BSA (blocking buffer) for 1 h to prevent non-specific binding. […] Following the incubation, ELISA plates were washed 4 times with PBST. To detect bound HA-EGFP-Plk1, the plates were probed for 2 h with 100 μl/well of anti-HA antibody at a concentration of 0.5 μg/ml in blocking buffer and then washed 5 times. The plates were further probed for 1 h with 100 μl/well of HRP-conjugated secondary antibody (GE Healthcare, Piscataway, N.J.) at a 1:1,000 dilution in blocking buffer. The plates were washed 5 times with PBST and incubated with 100 μl/well of 3,3′,5,5′-tetramethylbenzidine (TMB) solution (Sigma, St. Louis, Mo.) as a substrate until a desired absorbance was reached. […] The optical density (O.D.) was measured at 450 nm by using an ELISA plate reader (Molecular Devices, Sunnyvale, Calif.).\nA biotinylated p-T78 peptide was first diluted with IX coating solution (KPL Inc., Gaithersburg, Md.) to a final concentration of 0.3 μM, and then 100 μL of the resulting solution was immobilized onto a 96-well streptavidin-coated plate (Nalgene Nunc, Rochester, N.Y.). […] The plates were washed 5 times with PBST and incubated with 100 μL/well of 3,3′,5,5′-tetramethylbenzidine (TMB) substrate solution (Sigma, St. Louis, Mo.) until a desired absorbance was achieved. […]"}, "Plk1": {"target": "T1, Plk1 (Homo sapiens, UniProt P53350)", "T1 construct": "we used total lysates prepared from mitotic HeLa cells; endogenous in cells; host or cells: mitotic (nocodazole-arrested) HeLa cells", "T1 sequence (P53350 2-603)": "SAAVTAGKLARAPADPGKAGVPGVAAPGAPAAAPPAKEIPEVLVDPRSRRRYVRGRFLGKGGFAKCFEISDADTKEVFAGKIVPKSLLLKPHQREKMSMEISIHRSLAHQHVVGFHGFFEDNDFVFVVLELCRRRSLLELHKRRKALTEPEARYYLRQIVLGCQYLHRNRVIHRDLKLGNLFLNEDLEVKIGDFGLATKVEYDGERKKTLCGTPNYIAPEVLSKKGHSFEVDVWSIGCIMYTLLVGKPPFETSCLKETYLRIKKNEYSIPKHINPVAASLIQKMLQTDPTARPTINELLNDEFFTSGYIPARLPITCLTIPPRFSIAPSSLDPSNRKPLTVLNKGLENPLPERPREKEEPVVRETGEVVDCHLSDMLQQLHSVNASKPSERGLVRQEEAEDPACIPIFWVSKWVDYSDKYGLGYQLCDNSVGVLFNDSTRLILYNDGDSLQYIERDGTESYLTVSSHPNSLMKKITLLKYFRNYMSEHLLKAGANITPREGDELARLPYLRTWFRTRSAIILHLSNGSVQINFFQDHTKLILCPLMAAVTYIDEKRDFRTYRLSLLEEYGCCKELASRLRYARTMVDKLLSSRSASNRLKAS", "assay": "Peptide pull-down assay with bead-immobilized peptides, Plk1", "format": "binding", "conditions": "mitotic cell lysates", "protocol": "For Plk1 pull-down assays with immobilized peptides, we used total lysates prepared from mitotic HeLa cells. […] Cells treated with 200 ng/ml of nocodazole for 16 h were lysed in TBSN buffer {20 mM Tris-Cl (pH8.0), 150 mM NaCl, 0.5% NP-40, 5 mM EGTA, 1.5 mM EDTA, 0.5 mM Na3VO4, 20 mM p-nitrophenyl phosphate, and protease inhibitor cocktail (Roche, Nutley, N.J.)}, and then clarified by centrifugation at 15,000×g for 20 min at 4° C. The resulting lysates were incubated with bead-immobilized peptides (40 μM per binding) for 2 h, precipitated, washed, and then boiled in sodium dodecyl sulfate (SDS) sample buffer to elute the associated proteins. Samples were separated by 10% SDS-polyacrylamide gel electrophoresis (PAGE), and then either stained with silver or transferred to PVDF membrane for immunoblotting analysis with anti-Plk1 antibody using the enhanced chemiluminescence (ECL) detection system (Pierce). […]"}, "[1]": {"target": "Plk1 PBD-p-Cdc25C interaction (Homo sapiens, UniProt P53350)", "sequence (P53350 326-603 limits assumed)": "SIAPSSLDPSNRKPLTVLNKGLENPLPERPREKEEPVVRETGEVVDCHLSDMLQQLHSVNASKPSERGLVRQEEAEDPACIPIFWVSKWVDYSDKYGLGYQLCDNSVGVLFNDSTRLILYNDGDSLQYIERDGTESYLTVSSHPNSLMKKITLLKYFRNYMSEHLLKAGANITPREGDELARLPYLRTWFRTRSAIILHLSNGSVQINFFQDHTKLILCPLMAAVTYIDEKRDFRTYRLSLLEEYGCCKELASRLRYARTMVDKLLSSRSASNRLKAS", "assay": "Competition of the PBD-p-Cdc25C interaction in mitotic HeLa lysates", "format": "binding", "conditions": "GST-PBD", "protocol": "For p-Cdc25C pull-down assays, either bead-bound GST-PBD or the corresponding GST-PBD(H538A K540M) mutant was incubated with mitotic HeLa lysates in TBSN buffer supplemented with 2 mM DTT. To test the ability of the indicated peptides to compete the PBD-p-Cdc25C interaction, lysates were pre-incubated with GST-PBD for 1.5 h prior to the addition of the indicated peptides. Lysates were then incubated for additional 1.5 h, washed in the binding buffer, and then analyzed. For competition of the interaction between p-Cdc25C and endogenous Plk1, mitotic lysates were prepared in TBSN and incubated with the indicated peptides for 1 h before subjecting to immunoprecipitation with anti-Plk1 antibody."}, "Plk2 PBD": {"target": "T2, Plk2 PBD (Homo sapiens, UniProt Q9NYY3)", "T2 sequence (Q9NYY3 373-685)": "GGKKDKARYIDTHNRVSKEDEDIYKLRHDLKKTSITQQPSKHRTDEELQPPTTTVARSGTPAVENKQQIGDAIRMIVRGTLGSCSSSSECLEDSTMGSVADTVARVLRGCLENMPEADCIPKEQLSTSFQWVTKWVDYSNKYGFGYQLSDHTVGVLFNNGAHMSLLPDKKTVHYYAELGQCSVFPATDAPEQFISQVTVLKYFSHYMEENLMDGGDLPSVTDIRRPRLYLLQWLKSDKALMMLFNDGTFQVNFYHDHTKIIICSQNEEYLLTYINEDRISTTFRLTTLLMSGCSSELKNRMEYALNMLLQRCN", "assay": "Isothermal titration calorimetry with recombinant Plk2 PBD", "method": "The calorimetric titrations were carried out using purified recombinant PBDs (for Plk1 and Plk2) from bacterial cells and the indicated peptides.\nThe calorimetric titrations were performed on a VP-ITC titration calorimeter (Microcal, Inc., Northampton, Mass.). In a typical experiment, 5 l aliquots of a phosphorylated peptide were injected from a 250 l syringe into a rapidly mixing (300 rpm) solution of Plk1 PBD (cell volume=1.3472 ml). Control experiments involved injecting identical amounts of the peptide solution into buffer without Plk1 PBD. […] Titrations were carried out at 25° C. in 20 mM Tris-Cl (pH 7.5), 100 mM NaCl, 3 mM DTT. The isotherms, corrected for dilution/buffer effects, were fit using the Origin ITC Analysis software according to manufacturer's protocols. A nonlinear least-square method was used to fit the titration data and to calculate the errors. Consistent with the structural data, a 1:1 stoichiometry was assumed and the data were fit to a one-site binding model. From the binding curve, values for enthalpy and binding affinity were extracted. Thermodynamic parameters were calculated using ΔG=−RTlnKa, ΔG=ΔH−TΔS.\nFull length PBD was dialyzed against a low salt buffer (20 mM Tris-Cl, pH 7.5, 100 mM NaCl, 3 mM DTT), and used in calorimetry experiments."}, "HeLa cells [2]": {"system": "HeLa cells", "assay": "Direct treatment of cultured HeLa cells (mitotic arrest, apoptotic cell death, Plk1 localization)", "format": "cell-based", "conditions": "200 μM"}, "HeLa cells [3]": {"system": "HeLa cells", "conditions": "Yun et al. 2009; cited from earlier work"}, "[4]": {"target": "recombinant Plk1 PBD (full length PBD, calorimetry) (UniProt P53350)", "sequence (P53350 326-603 limits assumed)": "as the sequence (P53350 326-603 limits assumed) above", "assay": "ITC, 25 C; 5-mer LHSpTA (SEQ ID NO: 3)"}, "[5]": {"assay": "Toxicity in cell-based experiments"}, "Plk2": {"target": "T3, Plk2 (Mus musculus, UniProt P53351, K108M)", "T3 construct": "expressed in transfected cells", "T3 sequence (P53351 whole entry K108M)": "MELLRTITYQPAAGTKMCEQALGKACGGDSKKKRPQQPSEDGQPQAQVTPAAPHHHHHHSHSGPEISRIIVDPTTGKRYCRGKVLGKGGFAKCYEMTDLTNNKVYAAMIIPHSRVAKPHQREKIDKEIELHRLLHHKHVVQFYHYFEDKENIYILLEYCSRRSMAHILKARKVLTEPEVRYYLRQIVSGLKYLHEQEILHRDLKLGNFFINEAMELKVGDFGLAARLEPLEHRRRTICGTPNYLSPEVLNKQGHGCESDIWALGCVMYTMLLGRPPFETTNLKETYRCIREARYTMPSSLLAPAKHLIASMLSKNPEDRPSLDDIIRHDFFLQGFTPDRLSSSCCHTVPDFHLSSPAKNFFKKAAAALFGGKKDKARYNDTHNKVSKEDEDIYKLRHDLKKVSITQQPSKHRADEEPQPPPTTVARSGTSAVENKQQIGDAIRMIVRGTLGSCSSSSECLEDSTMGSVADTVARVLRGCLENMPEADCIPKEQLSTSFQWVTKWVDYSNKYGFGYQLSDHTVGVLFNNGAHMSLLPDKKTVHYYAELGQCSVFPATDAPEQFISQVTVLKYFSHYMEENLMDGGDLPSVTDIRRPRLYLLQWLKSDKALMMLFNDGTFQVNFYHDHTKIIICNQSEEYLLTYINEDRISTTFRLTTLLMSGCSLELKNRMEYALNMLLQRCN", "assay": "Peptide pull-down assay with bead-immobilized peptides, Plk2", "format": "binding", "protocol": "After incubating the cell lysates prepared in TBSN buffer {20 mM Tris-Cl (pH8.0), 150 mM NaCl, 0.5% Np-40, 5 mM EGTA, 1.5 mM EDTA, 20 mM p-nitrophenylphosphate and protease inhibitor cocktail (Roche, Nutley, N.J.)} with the bead-immobilized ligands for 2 h at 4° C., the ligand-associating proteins were precipitated, washed, boiled in sodium dodecyl sulfate (SDS) sample buffer, separated by 8% SDS-polyacrylamide gel electrophoresis (PAGE), and then subjected to immunoblotting analysis with anti-Flag antibody and the enhanced chemilunimescence (ECL) detection system (Pierce). The same membrane was also stained with Coomassies (CBB). Signal intensities were quantified using Image J program.\nTo investigate the binding specificity of p-T78 peptides to various Plks, Flag-Plk1 (K82M), Flag-Plk2(K108M)3 or Flag-Plk3(K52R) (a gift of Wei Dai, New York University School of Medicine, NY) construct was first transfected into HeLa cells. Cellular lysates were prepared as above, mixed, and then incubated in TBSN buffer with the immobilized peptides indicated."}, "Plk3": {"target": "T4, Plk3 (Homo sapiens, UniProt Q9H4B4, K91R)", "T4 construct": "expressed in transfected cells; construct a gift of Wei Dai", "T4 sequence (Q9H4B4 40-646 K91R limits assumed)": "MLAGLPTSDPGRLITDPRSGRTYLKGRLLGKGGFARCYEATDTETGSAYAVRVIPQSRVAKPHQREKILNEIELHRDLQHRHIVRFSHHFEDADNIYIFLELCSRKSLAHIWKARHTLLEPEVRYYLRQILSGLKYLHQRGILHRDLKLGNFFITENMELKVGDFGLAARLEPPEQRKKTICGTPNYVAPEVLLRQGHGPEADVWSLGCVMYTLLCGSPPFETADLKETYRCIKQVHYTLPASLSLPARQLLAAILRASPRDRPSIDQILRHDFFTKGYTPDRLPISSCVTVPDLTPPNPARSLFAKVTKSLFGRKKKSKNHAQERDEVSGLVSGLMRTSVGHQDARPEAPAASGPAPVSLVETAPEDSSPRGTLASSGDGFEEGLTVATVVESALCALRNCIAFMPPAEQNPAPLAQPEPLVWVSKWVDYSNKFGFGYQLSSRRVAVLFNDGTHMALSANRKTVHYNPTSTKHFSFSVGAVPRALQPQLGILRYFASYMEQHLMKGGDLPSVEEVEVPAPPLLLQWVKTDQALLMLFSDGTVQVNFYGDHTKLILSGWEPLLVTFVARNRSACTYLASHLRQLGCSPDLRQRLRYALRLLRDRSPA", "assay": "Peptide pull-down assay with bead-immobilized peptides, Plk3", "format": "binding"}, "[6]": {"target": "T5, recombinant Plk2 PBD (residues 373 to 685) (human) (UniProt Q9NYY3)", "T5 sequence (looked up)": "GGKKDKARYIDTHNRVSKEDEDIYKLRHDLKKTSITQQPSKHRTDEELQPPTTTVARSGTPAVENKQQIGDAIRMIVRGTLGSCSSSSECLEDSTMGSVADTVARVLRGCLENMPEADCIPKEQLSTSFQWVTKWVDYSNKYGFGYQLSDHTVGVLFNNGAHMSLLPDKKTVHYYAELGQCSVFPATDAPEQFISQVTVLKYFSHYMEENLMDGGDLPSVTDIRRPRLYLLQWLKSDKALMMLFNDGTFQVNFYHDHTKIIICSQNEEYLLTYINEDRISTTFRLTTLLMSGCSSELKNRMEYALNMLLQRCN", "assay": "ITC"}, "Flag-Plk2 (K108M) [7]": {"target": "Flag-Plk2 (K108M) (UniProt Q9NYY3)", "assay": "assay not stated at this place (peptide pull-down by paragraph 548)"}, "Flag-Plk1 (K82M)": {"target": "Flag-Plk1 (K82M) (UniProt P53350 1-603)", "sequence (P53350 whole entry K82M)": "as the sequence (P53350 whole entry) above, with K82M counted along it", "assay": "pull-down with bead-immobilized peptide, mitotic HeLa lysate"}, "HA-EGFP-Plk1 [8]": {"target": "T6, HA-EGFP-Plk1 (UniProt P53350 1-603)", "T6 construct": "In lysates of mitotic 293A cells infected with adenovirus expressing HA-EGFP-Plk1", "assay": "competition ELISA, HA-EGFP-Plk1 lysate on immobilized biotin p-T78 9-mer"}, "HA-EGFP-Plk1 [9]": {"target": "T6, HA-EGFP-Plk1", "assay": "ELISA-based PBD-binding inhibition assay: peptide as competitor of the immobilized biotinylated 9-mer p-T78 peptide for HA-EGFP-Plk1 in mitotic 293A cell lysate; bound Plk1 detected with anti-HA, OD 450 nm"}, "Flag-Plk2 (K108M) [10]": {"target": "Flag-Plk2 (K108M) (UniProt Q9NYY3)", "assay": "pull-down with bead-immobilized peptide, mixed Flag-Plk1/2/3 lysates (HeLa)"}, "[11]": {"target": "T5, recombinant Plk2 PBD (residues 373 to 685) (human)", "assay": "ITC; saturable binding not observed"}},
  "note": "“Also recorded” adds a separate entry of the source. *1 amine or outer side, *2 acyl side, *3 side chain or, on linkers, in order; H or OH if unused. Where a SMILES comes first, the peptide text is derived from it. Where no end group is shown, it is not given here. [ ]: non-standard residue; d: D form. Abu(3R-Me,4-PO3H2) = C[C@@H](CP(=O)(O)O)[C@H](N)C(=O)O; X1 = C[C@H]([C@H](N[*:1])C(=O)[*:2])C(F)(F)P(=O)(O)O; pT = C[C@@H](OP(=O)(O)O)[C@H](N)C(=O)O",
  "data": [
    {"molecule": "CC(=O)N[C@@H](CC(C)C)C(=O)N[C@@H](Cc1c[nH]cn1)C(=O)N[C@@H](CO)C(=O)N[C@H](C(=O)N[C@@H](C)C(N)=O)[C@@H](C)OP(=O)(O)O", "note": "[LHSpTA]", "values": [
      {"measurement": "Plk1 PBD-binding affinity / inhibition, in words", "setting": "Plk1 PBD", "value": "inhibited the PBD at a moderately reduced level"},
      {"measurement": "Plk1 binding / precipitation in pull-down, in words", "setting": "Plk1", "value": "bound to Plk1 almost as efficiently as PLHSpT"},
      {"measurement": "disruption of the pre-formed PBD-p-Cdc25C complex", "setting": "[1]", "value": "disrupted the pre-formed PBD-p-Cdc25C complex nearly as efficiently as PLHSpT"},
      {"measurement": "interaction with Plk2 PBD by calorimetry, in words", "setting": "Plk2 PBD", "value": "virtually no interactions with Plk2"}
    ]},
    {"molecule": "CC(=O)N1CCC[C@H]1C(=O)N[C@@H](CC(C)C)C(=O)N[C@@H](Cc1c[nH]cn1)C(=O)N[C@@H](CO)C(=O)N[C@H](C(N)=O)[C@@H](C)OP(=O)(O)O", "note": "[compound 1, PLHSpT]", "values": [
      {"measurement": "mitotic arrest / apoptotic cell death / cellular response", "setting": "HeLa cells [2]", "value": "failed to elicit a detectable cellular response; also recorded: failed to generate a detectable level of cellular effect"},
      {"measurement": "Plk1 localization and apoptotic cell death after microinjection", "setting": "HeLa cells [3]", "value": "interferes with proper subcellular localization of Plk1 and induces apoptotic cell death"}
    ]},
    {"molecule": "LHSpTA (peptide)", "values": [
      {"measurement": "Kd", "setting": "[4]", "value": 450, "unit": "nM"}
    ]},
    {"molecule": "CC(=O)N1CCC[C@H]1C(=O)N[C@@H](CC(C)C)C(=O)N[C@@H](Cc1c[nH]cn1)C(=O)N[C@@H](CO)C(=O)N[C@H](C(=O)N[C@@H](C)C(N)=O)[C@@H](C)C(F)(F)P(=O)(O)O", "note": "[compound 25, PLHS-F2Pmab-A] (Ac-PLHS[X1]A-NH2)", "values": [
      {"measurement": "toxicity", "setting": "[5]", "value": "significant toxicity"}
    ]},
    {"molecule": "COCCOCCOCCOCCOCCOCCOCCOCCC(=O)N1CCC[C@H]1C(=O)N[C@@H](CC(C)C)C(=O)N[C@@H](Cc1cncn1CCCCCCCCc1ccccc1)C(=O)N[C@@H](CO)C(=O)N[C@H](C(N)=O)[C@@H](C)CP(=O)(O)O", "note": "[PEG-4j*]", "values": [
      {"measurement": "Plk1 delocalization and misaligned chromosomes", "setting": "HeLa cells [2]", "value": "drastic Plk1 delocalization from centrosomes and kinetochores, and severe misaligned chromosomes"},
      {"measurement": "mitotic arrest / apoptotic cell death / cellular response", "setting": "HeLa cells [2]", "value": "effectively induced mitotic arrest and apoptotic cell death"},
      {"measurement": "Plk2 binding / precipitation in pull-down, in words", "setting": "Plk2", "value": "failed to significantly interact"},
      {"measurement": "Plk3 binding / precipitation in pull-down, in words", "setting": "Plk3", "value": "failed to significantly interact"}
    ]},
    {"molecule": "PLQS[pT]", "note": "[PLQSpT]", "values": [
      {"measurement": "initial heats of interaction", "setting": "[6]", "value": -1.1, "unit": "kcal/mol"},
      {"measurement": "fold increase of Plk2 binding", "setting": "Flag-Plk2 (K108M) [7]", "value": 24, "unit": "fold"}
    ]},
    {"molecule": "PLHA[Abu(3R-Me,4-PO3H2)] (also called 24; Pmab(S77A))", "note": "[PLHA-Pmab]", "values": [
      {"measurement": "binding result", "setting": "Flag-Plk1 (K82M)", "value": "no binding"},
      {"measurement": "fold higher molar concentration without inhibition", "setting": "HA-EGFP-Plk1 [8]", "value": "> 1000", "unit": "fold"},
      {"measurement": "binding result", "setting": "HA-EGFP-Plk1 [9]", "value": "no binding (tested: 300 µM)"}
    ]},
    {"molecule": "MQS[pT]PL", "note": "[MQSpTPL]", "values": [
      {"measurement": "efficiency of precipitation relative to Plk1", "setting": "Flag-Plk2 (K108M) [10]", "value": 27, "unit": "%"},
      {"measurement": "initial heats of interaction", "setting": "[11]", "value": -1.68, "unit": "kcal/mol"}
    ]}
  ]
}
